Source: US20150337351A1, “METHODS OF MICROORGANISM IMMOBILIZATION” (priority 2014, published 2015)

Key:
Type in all cases: cell-based
[1] = system: Staphylococcus aureus (SA); assay: Clone growth of captured, MHA-immobilized cells from simulated blood, darkfield digital microscopy; settings: 6 μg/mL FOX; 3 hours (0, 60, 120, 180 minutes); 35° C.
Procedure: Simulated blood specimens were used. Simulated blood specimens were produced by spiking SA, PA, and non-target bacilli species isolates into 10 mL volumes of blood from two short-fill CPD blood bank bags. A total of 29 simulated blood samples were produced, each having a microorganism concentration of approximately 5 CFU/mL of bacterial target species, confirmed by quantitative culture. Spiked isolates used to produce the simulated blood samples included 14 Staphylococcus aureus (SA), 3 Pseudomonas aeruginosa (PA), and 12 non-target Gram-negative bacilli species. Twenty additional control samples were produced which contained no spikes. Each sample was diluted with 30 mL of modified tryptic soy broth medium to promote growth, followed by a 4-hour incubation at 35° C. Following the 4-hour incubation period, samples were centrifuged briefly. The resulting microorganism cells pellets were resuspended in an electrokinetic concentration buffer to produce 1 mL samples for introduction into the detection system. Microorganism samples comprising 20 μL aliquots were pipetted into 14 microchannel flowcells. A 5-minute low-voltage electrokinetic capture was performed to concentrate the microorganisms on to a detection surface associated with each flowcell. […] Controls included quantitative culturing, disk diffusion tests for isolate resistance phenotype, and 20 blood samples without spikes.

[2] = system: Escherichia coli ATCC 25922 (Ecol); assay: Biosensor mixed species diffusion assay (immobilized cells, microscopic detection), growth of sentinel strain; settings: for Mixed species resistance factor diffusion? / Ecol growth in distal site? / Ecol growth in proximal site?: MEM 4 (4 μg/mL); for Ecol growth in distal site?: distal from Paer; for Ecol growth in proximal site?: proximal to Paer
Procedure: (§1) A mixed species diffusion variation of Hodge test using a biosensor with immobilized cells and microscopic detection was performed using the same bacterial strains. Heavy suspensions of Ecol and Paer were prepared in L-histidine buffer from fresh overnight blood agar plates. Heavy suspensions were diluted in normal saline to produce 0.5 McFarland suspensions, noting the volumes of each suspension required and using the same volumes to produce 10^8 cfu/mL suspensions of each strain in L-histidine. These suspensions were further diluted to create […] and 2×10^5 cfu/mL suspensions for heavy and moderate density working samples. The working samples were then diluted 1:1 in 2 mM L-DOPA for EKC.
(§2) The strains were next introduced to a biosensor for EKC, immobilization, and detection. Paer suspensions were loaded first, placing 5 uL in the exit port side (to maintain the resistant Paer isolate in one half of each channel) of each biosensor flowcell channel to cover one half of the flowcell. Six flowcells were loaded with each concentration. EKC was performed for 5 minutes at 1.5V, and then all flowcells were washed with two aliquots of 160 μL 1 mM L-DOPA (from the entry port). Ecol suspensions were next loaded, introducing 20 μL of cells suspension from the entry port to cover the full flowcell. Six flowcells were loaded with each concentration. EKC was performed for 5 minutes at 1.5V, and all flowcells washed with 160 μL of 1/10 MHB. The manner in which the cells were introduced and captures created a site comprising Ecol cells that were distal from any Paer cells (i.e., on the entry port side of the flowcell), as well as Ecol cells that were proximal to the Paer cells (i.e., on the exit port side of the flowcell).
(§3) Antibiotic media were prepared for immobilization and inhibition testing as follows. […] An immobilization medium source plate was prepared in the detection system and maintained at 45° C. The source plate wells were loaded with 20 μL of the 10× stocks and MHB without antibiotic for growth controls. The sample cassette was placed in the detection system and maintained at 40° C. A 180 uL volume of 0.944% MHA was added to each well of the source plate and mixed, and 100 uL of pre-immobilization immobilizing medium (with an agar concentration of 0.850%) was withdrawn and introduced to a flowcell in accordance with the experimental design. The loaded biosensor was allowed to equilibrate for 5 minutes, and was then removed and cooled for 5 minutes to induce the agar immobilizing agent to change to solid phase. The flowcell ports were then sealed, and growth, imaging, and analysis were performed, with examination of each flowcell for growth of Paer, examination of the distal portion of each flowcell for growth of Ecol in the absence of Paer (distal sensitivity), and examination of the proximal portion of each flowcell for growth of Ecol in the presence of Paer (proximal resistance), indicative of a positive mixed species resistance due to diffusion of metallo-beta-lactamase.
(§4) In order to test for enzyme-mediated cross-species resistance effects, a method for was devised to test a sensitive strain, Escherichia coli ATCC 25922 (Ecol), in the presence of a resistant strain, Pseudomonas aeruginosa IHMA 519749 (Paer) in the immobilized format. The method involved first immobilizing the resistant strain on the surface of a portion of each test flowcell of the cassette (approximately half) and then immobilizing the sensitive (sentinel) strain on the surface of the full flowcell including the area containing the resistant strain. This strategy provides an internal control for treatment effects on the sentinel strain in an area far from the resistant strain along with an area where close-field effects can be observed in the same flowcell. […]

[3] = system: Pseudomonas aeruginosa IHMA 519749 (Paer); assay: Biosensor mixed species diffusion assay (immobilized cells, microscopic detection), growth of resistant strain; settings: for Paer growth?: MEM 4 (4 μg/mL), MHA 0.850% agar, 4 hours
Procedure: as §1, §2, §3, §4

[4] = Flowcell 9, Ecol 10^6/Paer 10^6
[5] = Flowcell 9, Ecol 10^6/Paer 10^6, 4 hours
[6] = Flowcell 10, Ecol 10^6/Paer 10^5
[7] = Flowcell 10, Ecol 10^6/Paer 10^5, 4 hours
[8] = Flowcell 11, Ecol 10^5/Paer 10^6
[9] = Flowcell 11, Ecol 10^5/Paer 10^6, 4 hours
[10] = Flowcell 12, Ecol 10^5/Paer 10^5
[11] = Flowcell 12, Ecol 10^5/Paer 10^5, 4 hours

SMILES | SA clone growth in immobilizing medium with antibiotic (darkfield images, FIG. 2B) [1] | Mixed species resistance factor diffusion? [2, 4] | Ecol growth in distal site? [2, 5] | Ecol growth in proximal site? [2, 5] | Mixed species resistance factor diffusion? [2, 6] | Ecol growth in distal site? [2, 7] | Ecol growth in proximal site? [2, 7] | Mixed species resistance factor diffusion? [2, 8] | Ecol growth in distal site? [2, 9] | Ecol growth in proximal site? [2, 9] | Mixed species resistance factor diffusion? [2, 10] | Ecol growth in distal site? [2, 11] | Ecol growth in proximal site? [2, 11] | Ecol growth and morphology under antibiotic (time-lapse images) ([2]; MEM at 4 μg/mL, immobilized in MHA, 4 hours) | Paer growth? [3, 4] | Paer growth? [3, 6] | Paer growth? [3, 8] | Paer growth? [3, 10] | Paer growth morphology and rate under antibiotic vs growth control ([3]; MEM at 4 μg/mL, immobilized in MHA, proximal site)
CO[C@@]1(NC(=O)Cc2cccs2)C(=O)N2C(C(=O)O)=C(COC(N)=O)CS[C@@H]21 [FOX, cefoxitin] | growth indicating a methicillin-resistant phenotype | – | – | – | – | – | – | – | – | – | – | – | – | – | – | – | – | – | –
C[C@@H](O)[C@H]1C(=O)N2C(C(=O)O)=C(S[C@@H]3CN[C@H](C(=O)N(C)C)C3)[C@H](C)[C@H]12 [MEM, meropenem] | – | No | No | No | No | No | No | No | No | No | No | No | No | slight growth or elongation of the single cell with later fading and in many colonies complete lysis | Yes | Yes | Yes | Yes | same morphology and growth rate as the growth control condition
